In ChEMBL document CHEMBL4308841, “Synthesis, in vitro antiproliferative activity, and kinase inhibitory effects of pyrazole-containing diarylureas and diarylamides” (Eur J Med Chem, 2018):

Columns and labels:
[1] = system: NCI-H23; assay: Growth inhibition of human NCI-H23 cells incubated for 48 hrs by sulforhodamine B assay; format: functional, cell-based; details: NCI-H23, 48 h
[2] = system: HL-60(TB); assay: Growth inhibition of human HL-60(TB) cells assessed as cell growth at 1 uM incubated for 48 hrs by sulforhodamine B assay relative to control; format: functional; details: HL-60, 48 h, read-out: Activity
[3] = system: SK-MEL-2; assay: Growth inhibition of human SK-MEL-2 cells assessed as cell growth at 0.01 uM incubated for 48 hrs by sulforhodamine B assay relative to control; format: functional; details: SK-MEL-2, 48 h, read-out: Activity
[4] = system: SF-295; assay: Growth inhibition of human SF295 cells assessed as cell growth at 1 uM incubated for 48 hrs by sulforhodamine B assay relative to control; format: functional; details: SF-295, 48 h, read-out: Activity
[5] = system: Hs-578T; assay: Growth inhibition of human Hs578T cells incubated for 48 hrs by sulforhodamine B assay; format: functional, cell-based
[6] = system: Hs-578T; assay: Growth inhibition of human Hs578T cells assessed as cell growth at 1 uM incubated for 48 hrs by sulforhodamine B assay relative to control; format: functional; details: read-out: Activity
[7] = system: HT-29; assay: Growth inhibition of human HT-29 cells assessed as cell growth at 0.01 uM incubated for 48 hrs by sulforhodamine B assay relative to control; format: functional; details: HT-29, 48 h, read-out: Activity
[8] = system: RXF 393; assay: Growth inhibition of human RXF393 cells assessed as cell growth at 0.01 uM incubated for 48 hrs by sulforhodamine B assay relative to control; format: functional; details: RXF 393, 48 h, read-out: Activity
[9] = system: UACC-257; assay: Growth inhibition of human UACC257 cells assessed as cell growth at 0.01 uM incubated for 48 hrs by sulforhodamine B assay relative to control; format: functional; details: UACC-257, 48 h, read-out: Activity
[10] = system: MCF7; assay: Growth inhibition of human MCF7 cells incubated for 48 hrs by sulforhodamine B assay; format: functional, cell-based; details: MCF7, 48 h
[11] = system: OVCAR-3; assay: Growth inhibition of human OVCAR3 cells assessed as cell growth at 0.1 uM incubated for 48 hrs by sulforhodamine B assay relative to control; format: functional; details: OVCAR-3, 48 h, read-out: Activity
[12] = system: NCI-H322M; assay: Growth inhibition of human NCI-H322M cells assessed as cell growth at 1 uM incubated for 48 hrs by sulforhodamine B assay relative to control; format: functional; details: read-out: Activity
[13] = system: SN12C; assay: Growth inhibition of human SN12C cells assessed as cell growth at 1 uM incubated for 48 hrs by sulforhodamine B assay relative to control; format: functional; details: read-out: Activity
[14] = system: MCF7; assay: Growth inhibition of human MCF7 cells assessed as cell growth at 0.01 uM incubated for 48 hrs by sulforhodamine B assay relative to control; format: functional; details: MCF7, 48 h, read-out: Activity
[15] = system: NCI-H226; assay: Growth inhibition of human NCI-H226 cells assessed as cell growth at 100 uM incubated for 48 hrs by sulforhodamine B assay relative to control; format: functional; details: NCI-H226, 48 h, read-out: Activity
[16] = system: HL-60(TB); assay: Growth inhibition of human HL-60(TB) cells incubated for 48 hrs by sulforhodamine B assay; format: functional, cell-based; details: HL-60, 48 h
[17] = system: SN12C; assay: Growth inhibition of human SN12C cells assessed as cell growth at 0.1 uM incubated for 48 hrs by sulforhodamine B assay relative to control; format: functional; details: read-out: Activity
[18] = system: SNB-75; assay: Growth inhibition of human SNB75 cells assessed as cell growth at 100 uM incubated for 48 hrs by sulforhodamine B assay relative to control; format: functional; details: SNB-75, 48 h, read-out: Activity
[19] = system: SK-OV-3; assay: Growth inhibition of human SKOV3 cells assessed as cell growth at 0.01 uM incubated for 48 hrs by sulforhodamine B assay relative to control; format: functional; details: SK-OV-3, 48 h, read-out: Activity
[20] = system: SF-539; assay: Growth inhibition of human SF539 cells assessed as cell growth at 100 uM incubated for 48 hrs by sulforhodamine B assay relative to control; format: functional; details: SF-539, 48 h, read-out: Activity
[21] = system: HCT-116; assay: Growth inhibition of human HCT116 cells assessed as cell growth at 1 uM incubated for 48 hrs by sulforhodamine B assay relative to control; format: functional; details: HCT-116, 48 h, read-out: Activity
[22] = system: HCT-15; assay: Growth inhibition of human HCT15 cells assessed as cell growth at 100 uM incubated for 48 hrs by sulforhodamine B assay relative to control; format: functional; details: HCT-15, 48 h, read-out: Activity
[23] = system: SR; assay: Growth inhibition of human SR cells assessed as cell growth at 0.1 uM incubated for 48 hrs by sulforhodamine B assay relative to control; format: functional; details: read-out: Activity
[24] = system: CAKI-1; assay: Growth inhibition of human Caki1 cells assessed as cell growth at 1 uM incubated for 48 hrs by sulforhodamine B assay relative to control; format: functional; details: CAKI-1, 48 h, read-out: Activity
[25] = system: SNB-75; assay: Growth inhibition of human SNB75 cells incubated for 48 hrs by sulforhodamine B assay; format: functional, cell-based; details: SNB-75, 48 h
[26] = system: SF-539; assay: Growth inhibition of human SF539 cells incubated for 48 hrs by sulforhodamine B assay; format: functional, cell-based; details: SF-539, 48 h
[27] = system: IGROV-1; assay: Growth inhibition of human IGROV1 cells assessed as cell growth at 0.01 uM incubated for 48 hrs by sulforhodamine B assay relative to control; format: functional; details: IGROV-1, 48 h, read-out: Activity
[28] = system: SNB-19; assay: Growth inhibition of human SNB19 cells assessed as cell growth at 0.01 uM incubated for 48 hrs by sulforhodamine B assay relative to control; format: functional; details: SNB-19, 48 h, read-out: Activity
[29] = system: NCI-H322M; assay: Growth inhibition of human NCI-H322M cells assessed as cell growth at 0.1 uM incubated for 48 hrs by sulforhodamine B assay relative to control; format: functional; details: read-out: Activity
[30] = system: OVCAR-4; assay: Growth inhibition of human OVCAR4 cells assessed as cell growth at 100 uM incubated for 48 hrs by sulforhodamine B assay relative to control; format: functional; details: OVCAR-4, 48 h, read-out: Activity
[31] = read-out: LC50 (the source's name)
[32] = read-out: pLC50 (the source's name) (converted)

Question: Which GI50 ([1]; read-out: GI50) does the source give for O=C(Nc1cccc(-n2cc(-c3ccncc3)c(-c3cc(O)cc(Cl)c3)n2)c1)Nc1ccc(Cl)c(C(F)(F)F)c1 here?
Answer: Its GI50 is 2.58 µM.

Question: What about the LC50 ([1]; read-out: LC50) of the same molecule?
Answer: The LC50 was 45.1 µM.

Question: And the TGI ([1]; read-out: TGI)?
Answer: The TGI was 74 µM.

Question: What about the GI50 ([1]; read-out: pGI50 (converted)) of the same molecule?
Answer: The GI50 was 2.57 µM.

Question: And the LC50 ([1]; read-out: pLC50 (converted))?
Answer: The LC50 was 45.7 µM.

Question: What about the TGI ([1]; read-out: pTGI (converted)) of the same molecule?
Answer: The TGI was 7.41 µM.

Question: What about the growth at 1 µM [2] of the same molecule?
Answer: Its growth at 1 µM is 113%.

Question: And the growth at 0.01 µM [3]?
Answer: Its growth at 0.01 µM is 99%.

Question: And the growth at 1 µM [4]?
Answer: The growth at 1 µM was 91%.

Question: What about the GI50 ([5]; read-out: GI50) of the same molecule?
Answer: The GI50 was 3.2 µM.

Question: What about the CC50 [5, 31] of the same molecule?
Answer: The CC50 was over 100 µM.

Question: What about the TGI ([5]; read-out: TGI) of the same molecule?
Answer: The TGI was over 100 µM.

Question: What about the GI50 ([5]; read-out: pGI50 (converted)) of the same molecule?
Answer: Its GI50 is 3.31 µM.

Question: What about the CC50 [5, 32] of the same molecule?
Answer: The CC50 was over 100 µM.

Question: And the TGI ([5]; read-out: pTGI (converted))?
Answer: The TGI was over 100 µM.

Question: And the growth at 1 µM [6]?
Answer: Its growth at 1 µM is 87%.

Question: What about the growth at 0.01 µM [7] of the same molecule?
Answer: The growth at 0.01 µM was 98%.

Question: What about the growth at 0.01 µM [8] of the same molecule?
Answer: Its growth at 0.01 µM is 93%.

Question: What about the growth at 0.01 µM [9] of the same molecule?
Answer: Its growth at 0.01 µM is 90%.

Question: What about the GI50 ([10]; read-out: GI50) of the same molecule?
Answer: The GI50 was 2.53 µM.

Question: And the LC50 ([10]; read-out: LC50)?
Answer: Its LC50 is over 100 µM.

Question: And the TGI ([10]; read-out: TGI)?
Answer: Its TGI is 85.4 µM.

Question: What about the GI50 ([10]; read-out: pGI50 (converted)) of the same molecule?
Answer: Its GI50 is 2.63 µM.

Question: And the LC50 ([10]; read-out: pLC50 (converted))?
Answer: Its LC50 is over 100 µM.

Question: And the TGI ([10]; read-out: pTGI (converted))?
Answer: The TGI was 8.51 µM.

Question: And the growth at 0.1 µM [11]?
Answer: Its growth at 0.1 µM is 95%.

Question: What about the growth at 1 µM [12] of the same molecule?
Answer: The growth at 1 µM was 93%.

Question: What about the growth at 1 µM [13] of the same molecule?
Answer: The growth at 1 µM was 97%.

Question: And the growth at 0.01 µM [14]?
Answer: The growth at 0.01 µM was 90%.

Question: And the growth at 100 µM [15]?
Answer: The growth at 100 µM was -38%.

Question: What about the GI50 ([16]; read-out: GI50) of the same molecule?
Answer: Its GI50 is 2.56 µM.

Question: What about the LC50 ([16]; read-out: LC50) of the same molecule?
Answer: Its LC50 is over 100 µM.

Question: And the TGI ([16]; read-out: TGI)?
Answer: Its TGI is 66.2 µM.

Question: And the GI50 ([16]; read-out: pGI50 (converted))?
Answer: The GI50 was 2.88 µM.

Question: What about the LC50 ([16]; read-out: pLC50 (converted)) of the same molecule?
Answer: Its LC50 is over 100 µM.

Question: And the TGI ([16]; read-out: pTGI (converted))?
Answer: The TGI was 6.61 µM.

Question: And the growth at 0.1 µM [17]?
Answer: Its growth at 0.1 µM is 100%.

Question: And the growth at 100 µM [18]?
Answer: Its growth at 100 µM is -41%.

Question: And the growth at 0.01 µM [19]?
Answer: The growth at 0.01 µM was 108%.

Question: What about the growth at 100 µM [20] of the same molecule?
Answer: The growth at 100 µM was -50%.

Question: What about the growth at 1 µM [21] of the same molecule?
Answer: Its growth at 1 µM is 91%.

Question: And the growth at 100 µM [22]?
Answer: The growth at 100 µM was -57%.

Question: What about the growth at 0.1 µM [23] of the same molecule?
Answer: Its growth at 0.1 µM is 98%.

Question: And the growth at 1 µM [24]?
Answer: Its growth at 1 µM is 98%.

Question: What about the GI50 ([25]; read-out: GI50) of the same molecule?
Answer: The GI50 was 1.49 µM.

Question: What about the CC50 [25, 31] of the same molecule?
Answer: Its CC50 is over 100 µM.

Question: What about the TGI ([25]; read-out: TGI) of the same molecule?
Answer: Its TGI is 63.6 µM.

Question: And the GI50 ([25]; read-out: pGI50 (converted))?
Answer: Its GI50 is 1.48 µM.

Question: And the CC50 [25, 32]?
Answer: Its CC50 is over 100 µM.

Question: And the TGI ([25]; read-out: pTGI (converted))?
Answer: Its TGI is 6.31 µM.

Question: And the GI50 ([26]; read-out: GI50)?
Answer: Its GI50 is 1.97 µM.

Question: What about the CC50 [26, 31] of the same molecule?
Answer: Its CC50 is 13.7 µM.

Question: And the TGI ([26]; read-out: TGI)?
Answer: The TGI was 44.9 µM.

Question: What about the GI50 ([26]; read-out: pGI50 (converted)) of the same molecule?
Answer: The GI50 was 1.95 µM.

Question: What about the CC50 [26, 32] of the same molecule?
Answer: The CC50 was 13.8 µM.

Question: And the TGI ([26]; read-out: pTGI (converted))?
Answer: Its TGI is 4.47 µM.

Question: What about the growth at 0.01 µM [27] of the same molecule?
Answer: Its growth at 0.01 µM is 94%.

Question: And the growth at 0.01 µM [28]?
Answer: The growth at 0.01 µM was 95%.

Question: What about the growth at 0.1 µM [29] of the same molecule?
Answer: Its growth at 0.1 µM is 101%.

Question: What about the growth at 100 µM [30] of the same molecule?
Answer: The growth at 100 µM was -10%.
